Literature values in US8895779B2 (BioAmber Inc., priority 2010, dated 2014).

Conditions: Table 1, Run 1, acid charged

pKa1: 4.43
SMILES: O=C(O)CCCCC(=O)O [AA, adipic acid]
